# pIC50: −log10 of the molar value.
# Biological target: T1, Human MAT2A (Homo sapiens, UniProt P31153)
# T1 construct: Human MAT2A: Cepter, amino acids 1-395; purchased Cepter clone ID 329, lot 00023-123; clone ID 334, lot 00023-148
# Assay: Phosphate Sensor Fluorescence Assay (Biologic Example A)
# Format: biochemical
# Details: MAT2A enzyme inhibition, Biological Example A; 500 uM L-methionine, 500 uM ATP; class symbols
# Protocol: (§1) The ability of the compound of present disclosure to inhibit MAT2A enzyme was determined using a Phosphate Sensor Fluorescence Assay described below.
# (§2) MAT2A enzyme is incubated with a test compound in DMSO or DMSO and its substrates (L-methionine and ATP) in a microtiter plate. The enzymatic reaction is stopped by the addition of Working Phosphate Sensor Mixture. The plate is analyzed for fluorescence at 450 nm. The high control (DMSO with enzyme and its substrates) gives high fluorescence which represents no inhibition of enzymatic activity while the low control (DMSO with MAT2A substrates and no enzyme) gives low fluorescence which represents full inhibition of enzymatic activity.
# Human MAT2A: Cepter, amino acids 1-395
# Assay Buffer: 50 mM Tris, pH 7.5/50 mM KCl/10 mM MgCl2/0.01% Brij-35/1 mM DTT/0.1% BGG/40 nM PNP/6 uM 7-MEG
# MAT2A: 10 nM for Cepter clone ID 329, lot 00023-123 before the addition of Working Phosphate Sensor Mixture • 5 nM for Cepter clone ID 334, lot 00023-148 before the addition of Working Phosphate Sensor Mixture
# (§3) L-methionine: 500 uM before the addition of Working Phosphate Sensor Mixture
# ATP: 500 uM before the addition of Working Phosphate Sensor Mixture Procedure:
# (§4) For the assay, a mixture of 1 mM L-methionine/1 mM ATP (2× final pre-stopped concentration) in assay buffer; MAT2A (2× final pre-stopped concentration) in Assay Buffer and Working Phosphate Sensor Mixture (1.5 uM Phosphate Sensor/30 mM EDTA in Assay Buffer, which is 3× final concentrations) were prepared. Test compounds or DMSO were added to the appropriate well suing D300e digital dispenser. 5 μl/well of Assay Buffer was added to the wells corresponding to the negative control and 5 μl/well of MAT2A was added to all the wells except for those corresponding to the negative control. After incubating the plate at room temperature for 15 minutes, 5 μl/well of the 1 mM L-methionine/1 mM ATP mixture was added to all wells. The plate was centrifuged at 1000 rpm for 1 minute and then incubated at room temperature for 1 hour. 5 μl of the Working Phosphate Sensor Mixture was added to all wells and the plate was centrifuged at 1000 rpm for 1 minute. The plate was read for fluorescence at 450 nm after exciting at 430 nm.
# (§5) Percent inhibition was calculated in Chemical and Biological Information System (CBIS), (ChemInnovation Software Inc.). Curves were fitted by CBIS as % inhibition vs. log [compound concentration] using a 4-parameter inhibition model.
# (§6) Fit=(A+((B−A)/(1+((C/x)^D))))
# (§7) Compounds 1.001-1.021 were tested using the procedure described in Biological Example A, described above. Compounds 1.022-1.026 were tested using the procedure described in Biological Example B, described above.
# T1 sequence (P31153 whole entry, the tested form may be a part): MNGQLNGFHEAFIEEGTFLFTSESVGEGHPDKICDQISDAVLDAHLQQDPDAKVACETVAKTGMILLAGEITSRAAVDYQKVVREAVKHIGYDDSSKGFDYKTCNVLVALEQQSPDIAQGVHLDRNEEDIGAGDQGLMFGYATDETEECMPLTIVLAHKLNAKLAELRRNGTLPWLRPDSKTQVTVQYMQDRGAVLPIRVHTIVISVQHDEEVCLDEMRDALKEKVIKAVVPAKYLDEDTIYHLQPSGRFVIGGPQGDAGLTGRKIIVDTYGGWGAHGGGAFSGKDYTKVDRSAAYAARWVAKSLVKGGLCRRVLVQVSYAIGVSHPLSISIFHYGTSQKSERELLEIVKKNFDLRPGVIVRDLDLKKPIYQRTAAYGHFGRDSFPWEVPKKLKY
row,pIC50,Structure (SMILES)
1,6.00 to 6.30,O=c1[nH]c2ccccc2c(-c2ccccc2)c1Sc1ncnc2sccc12 [Compound 1.002]
2,5.00 to 6.00,O=c1[nH]c2ccc(Cl)cc2c(-c2ccccc2)c1S(=O)(=O)c1ccccc1 [Compound 1.003]
3,6.30 to 6.70,"COc1c(-c2ccccc2)c2cc(Cl)ccc2[nH]c1=O [Compound 1.004, 6-chloro-3-methoxy-4-phenylquinolin-2(1H)-one]"
4,5.00 to 6.00,"CS(=O)(=O)c1c(-c2ccccc2)c2cc(Cl)ccc2[nH]c1=O [Compound 1.005, 6-chloro-3-(methylsulfonyl)-4-phenylquinolin-2(1H)-one]"
5,5.00 to 6.00,"O=c1[nH]c2ccc(Cl)cc2c(-c2ccccc2)c1Sc1ncnc2sccc12 [Compound 1.006, 6-chloro-4-phenyl-3-(thieno[2,3-d]pyrimidin-4-ylthio)quinolin-2(1H)-one]"
6,5.00 to 6.00,"CN(C)c1c(-c2ccccc2)c2cc(Cl)ccc2[nH]c1=O [Compound 1.008, 6-chloro-3-(dimethylamino)-4-phenylquinolin-2(1H)-one]"
7,6.70 to 8.00,"COc1c(-c2ccccc2)c2cc(Br)ccc2[nH]c1=O [Compound 1.009, 6-bromo-3-methoxy-4-phenylquinolin-2(1H)-one]"
8,6.70 to 8.00,"O=c1[nH]c2ccc(Cl)cc2c(-c2ccccc2)c1O [Compound 1.010, 6-chloro-3-hydroxy-4-phenylquinolin-2(1H)-one]"
9,6.70 to 8.00,"COc1c(-c2ccccc2)c2cc(C3CC3)ccc2[nH]c1=O [Compound 1.011, 6-cyclopropyl-3-methoxy-4-phenylquinolin-2(1H)-one]"
10,6.30 to 6.70,"COc1c(-c2cccnc2)c2cc(Cl)ccc2[nH]c1=O [Compound 1.012, 6-chloro-3-methoxy-4-(pyridin-3-yl)quinolin-2(1H)-one]"
11,5.00 to 6.00,"O=c1[nH]c2ccc(Cl)cc2c(-c2ccccc2)c1Sc1nc2ccccc2s1 [Compound 1.013, 3-(benzo[d]thiazol-2-ylthio)-6-chloro-4-phenylquinolin-2(1H)-one]"
12,5.00 to 6.00,"CNS(=O)(=O)c1c(-c2ccccc2)c2cc(Cl)ccc2[nH]c1=O [Compound 1.014, 6-chloro-N-methyl-2-oxo-4-phenyl-1,2-dihydroquinoline-3-sulfonamide]"
13,6.70 to 8.00,"O=c1[nH]c2ccc(Cl)cc2c(-c2ccccc2)c1S [Compound 1.015, 6-chloro-3-mercapto-4-phenylquinolin-2(1H)-one]"
14,5.00 to 6.00,"CCCNS(=O)(=O)c1c(-c2ccccc2)c2cc(Cl)ccc2[nH]c1=O [Compound 1.016, 6-chloro-2-oxo-4-phenyl-N-propyl-1,2-dihydroquinoline-3-sulfonamide]"
15,6.70 to 8.00,"Cc1ccccc1-c1c(O)c(=O)[nH]c2ccc(Cl)cc12 [Compound 1.017, 6-chloro-3-hydroxy-4-(o-tolyl)quinolin-2(1H)-one]"
16,6.70 to 8.00,"Cc1ccccc1-c1c(O)c(=O)[nH]c2ccc(C(F)(F)F)cc12 [Compound 1.018, 3-hydroxy-4-(o-tolyl)-6-(trifluoromethyl)quinolin-2(1H)-one]"
17,6.70 to 8.00,"COc1c(-c2ccccc2)c2cc(C(F)(F)F)ccc2[nH]c1=O [Compound 1.019, 3-methoxy-4-phenyl-6-(trifluoromethyl)quinolin-2(1H)-one]"
18,6.70 to 8.00,"O=c1[nH]c2ccc(C(F)(F)F)cc2c(-c2ccccc2)c1O [Compound 1.020, 3-hydroxy-4-phenyl-6-(trifluoromethyl)quinolin-2(1H)-one]"
19,6.70 to 8.00,"O=c1[nH]c2ccc(Cl)cc2c(-c2ccccc2Cl)c1O [Compound 1.021, 6-chloro-4-(2-chlorophenyl)-3-hydroxyquinolin-2(1H)-one]"

# Same assay, conditions: MAT2A enzyme inhibition, Biological Example A; 500 uM L-methionine, 500 uM ATP; given as bound
row,pIC50,Structure (SMILES)
1,< 5.00,"Cn1c(=O)cc(-c2ccccc2)c2cc(Cl)ccc21 [Compound 1.001, 6-chloro-1-methyl-4-phenylquinolin-2(1H)-one]"

# Same assay, conditions: MAT2A enzyme inhibition, Biological Example A; 500 uM L-methionine, 500 uM ATP; unit inferred
row,pIC50,Structure (SMILES)
1,< 5.00,"CNc1c(-c2ccccc2)c2cc(Cl)ccc2[nH]c1=O [Compound 1.007, 6-chloro-3-(methylamino)-4-phenylquinolin-2(1H)-one]"

# Biological target: T1, Human MAT2A
# Assay: Phosphate Sensor Fluorescence Assay (Biologic Example B)
# Format: biochemical
# Details: MAT2A enzyme inhibition, Biological Example B; 5.8 nM MAT2A, 500 uM L-methionine, 500 uM ATP; class symbols
# Protocol: as §1, §2
# MAT2A: 5.8 nM MAT2A (1-395), Cepter, clone ID 334, lot 00023-148 before the addition of Working Phosphate Sensor Mixture
# as §3
# ATP: 500 uM before the addition of Working Phosphate Sensor Mixture
# as §4, with “well using a Beckman Coulter Echo 550 acoustic liquid handler. 10 µL/well” for “well suing D300e digital dispenser. 5 μl/well”, “and 10 µL/well” for “and 5 μl/well”, “minutes, 10 μL/well” for “minutes, 5 μl/well”, “hour. 10 μL” for “hour. 5 μl”, “430 nm on a Tecan Spark microplate reader.” for “430 nm.”
# as §5, §6, §7
row,pIC50,Structure (SMILES)
1,6.70 to 8.00,"Cn1nccc1-c1c(O)c(=O)[nH]c2ccc(C(F)(F)F)cc12 [Compound 1.022, 3-Hydroxy-4-(1-methyl-1H-pyrazol-5-yl)-6-(trifluoromethyl)quinolin-2(1H)-one]"
2,> 8.00,"Cc1ncccc1-c1c(O)c(=O)[nH]c2ccc(C(F)(F)F)cc12 [Compound 1.023, 3-Hydroxy-4-(2-methylpyridin-3-yl)-6-(trifluoromethyl)quinolin-2(1H)-one]"
3,6.70 to 8.00,"COc1cc(C(F)(F)F)cc2c(-c3ccccc3C)c(O)c(=O)[nH]c12 [Compound 1.024, 3-Hydroxy-8-methoxy-4-(o-tolyl)-6-(trifluoromethyl)quinolin-2(1H)-one]"
4,6.70 to 8.00,"Cc1ncccc1-c1c(O)c(=O)[nH]c2ccc(Br)cc12 [Compound 1.025, 6-Bromo-3-hydroxy-4-(2-methylpyridin-3-yl)quinolin-2(1H)-one]"
5,6.70 to 8.00,"Cc1ncccc1-c1c(O)c(=O)[nH]c2ccc(Cl)cc12 [Compound 1.026, 6-Chloro-3-hydroxy-4-(2-methylpyridin-3-yl)quinolin-2(1H)-one]"

# Reference: patent publication US20230227409A1, “QUINOLINONE DERIVATIVES AS METHIONINE ADENOSYLTRANSFERASE 2A INHIBITORS” (IDEAYA BIOSCIENCES, INC., priority 2020, published 2023)
